Results published in PMC5303205, “Comparative studies on the multi-component pharmacokinetics of Aristolochiae Fructus and honey-fried Aristolochiae Fructus extracts after oral administration in rats” (BMC Complementary and Alternative Medicine, 2017).
Where two headings read alike, the source gives them in different places.

Columns and labels:
[1] = Stability of AAs in rat plasma (QC samples, HPLC-MS/MS); format: in vitro ADME; settings: n = 5; for Short-term stability (RSD/%): fresh rat plasma at room temperature for 24 h before sample preparation; for Post-preparation stability (RSD/%): prepared rat plasma samples at room temperature for 24 h; for Long-term stability (RSD/%): rat plasma stored at –20 °C for 14 days; for Freeze-thaw stability (RSD/%): rat plasma, three freeze-thaw cycles (–20 °C 24 h, thawed at room temperature)
Method: The QC samples were assayed under several different conditions to evaluate the stability of AAs in rat plasma. The freeze-thaw stability of the analyte was determined over three freeze-thaw cycles. In each freeze-thaw cycle, the samples were frozen and stored at –20 °C for 24 h, then thawed at room temperature. To evaluate the long-term stability of AAs, the plasma samples were stored at –20 °C for 14 days. For the short-term stability, fresh plasma samples were kept at room temperature for 24 h before the sample preparation. After keeping the samples at room temperature for 24 h, post-preparation stability was tested. Stability was evaluated by comparing the mean concentration of the stored samples with the mean concentration of those prepared freshly. The stability data were acceptable when the bias was within ±15% of the actual value.

[2] = Multi-component pharmacokinetics of AAs in rats after oral administration of AF and HAF extracts (HPLC-MS/MS of plasma); design: species or system Sprague–Dawley (SD) rats; settings: Sprague-Dawley, rat, in vivo
Method: An aliquot (100 μl) of rat plasma was spiked with 10.0 μL IS, and vortexed with 300 μL acetic ether for 10 s before the supernatant was transferred into centrifuge tube. The extraction was repeated with 200 μL acetic ether. The combined organic layer was evaporated to dryness under a gentle stream of nitrogen at RT. The residue was resolved in 100 μL methanol and centrifuged at 15,800 × g for 10 min. The supernatant was used for HPLC-MS/MS analysis.
Chromatographic separation was performed by an Acquity C18 column (4.6 × 100 mm,3.5 μm) (Agilent Technologies, USA). The mobile phase was composed of water (containing 10 mM ammonium formate and formic acid, pH 3.0) (solvent A) and ACN (solvent B). The gradient profile of B was: 0–10 min, 35–38%; 10–11 min, 38– 60%; 11–17 min, 60–35%B; 17–18 min, 35%. The flow rate was kept at 0.5 mL/min. The column oven was set at 30 °C and the injection volume was 10 μL.
The mass spectrometer was operated in the positive ion electrospray mode with multiple reaction monitoring (MRM). The optimal MS parameters were set at the following parameters: a desolvation gas temperature of 450 °C, desolvation gas flow of 10 L/min, a nebulizer gas of 40 psi and a capillary voltage of 4000 V. The mass spectrometry conditions of AA I, AA II, AA C, AA D, 7-OH AA I and IS are summarized in Additional file 1: Table S1.
The rats were randomly divided into 6 groups (low, middle and high doses of AF and HAF; n = 6). After a week of acclimation, the animals were fasted for 12 h with free access to water. Then, AF and HAF extracts were administered to the rats. The extracts were suspended in 0.5% CMC–Na solution, and the oral doses (according to AA I in the extracts) were 3.0 mg/kg, 8.0 mg/kg and 15.0 mg/kg, respectively.
Blood samples were collected from the ocular vein using dried heparinized tubes at 0, 0.083, 0.17, 0.33, 0.50, 0.67, 0.83, 1, 2, 4, 6, 8, 10, 12 and 24 h from the start. The animals received fluid replacement (sterile isotonic saline) after every two samplings since the fifth collecting. The samples were then immediately centrifuged at 3100 × g for 10 min. The plasma obtained was frozen and stored at –20 °C until analysis.
All statistical analyses were performed using the SPSS 11.0 software (Chicago, USA). P values <0.05 were considered statistically significant. Pharmacokinetic analysis was performed using the proprietary DAS 3.0 software (Mathematical Pharmacology Professional Committee of China, Shanghai, China).
After the oral administration of AF and HAF extracts, rat plasma samples were prepared and analyzed as described above. Five main AAs can be detected in rat blood with the proposed HPLC-MS/MS method. The mean pharmacokinetic parameters of five AAs in AF and HAF are summarized in Tables 4, 5 and Additional files 5, 6, 7: Tables S4-S6. The maximum concentration (C max) was the experimentally-observed value. The other pharmacokinetic parameters of the five analytes were fitted by DAS 3.0 software.

[3] = high QC conc ng/mL: AA I 1830, AA II 3200, AA C 2980, AA D 3680, 7-OH AA I 3280
[4] = low QC conc ng/mL: AA I 1.83, AA II 8.00, AA C 186.3, AA D 36.8, 7-OH AA I 82.0
[5] = middle QC conc ng/mL: AA I 457.5, AA II 400, AA C 372.5, AA D 460, 7-OH AA I 410
[6] = 3 mg/kg, AF extract, low dose (3.0 mg/kg as AA I), analyte dose mg/kg: AA I 3.0, AA II 0.21, AA C 1.42, AA D 1.60, 7-OH AA I 2.33, n = 6
[7] = 3 mg/kg, HAF extract, low dose (3.0 mg/kg as AA I), analyte dose mg/kg: AA I 3.0, AA II 0.26, AA C 1.53, AA D 1.51, 7-OH AA I 2.48, n = 6
[8] = 8 mg/kg, AF extract, mid dose (8.0 mg/kg as AA I), analyte dose mg/kg: AA I 8.0, AA II 0.56, AA C 3.78, AA D 4.26, 7-OH AA I 6.22, n = 6
[9] = 8 mg/kg, HAF extract, mid dose (8.0 mg/kg as AA I), analyte dose mg/kg: AA I 8.0, AA II 0.69, AA C 4.09, AA D 4.03, 7-OH AA I 6.62, n = 6
[10] = 15 mg/kg, AF extract, high dose (15.0 mg/kg as AA I), analyte dose mg/kg: AA I 15.0, AA II 1.05, AA C 7.09, AA D 8.00, 7-OH AA I 11.66, n = 6
[11] = 15 mg/kg, HAF extract, high dose (15.0 mg/kg as AA I), analyte dose mg/kg: AA I 15.0, AA II 1.29, AA C 7.66, AA D 7.56, 7-OH AA I 12.41, n = 6

## COc1c(O)ccc2c1cc([N+](=O)[O-])c1c(C(=O)O)cc3c(c12)OCO3 [7-OH AA I]
[1]; [3]
  Short-term stability (RSD/%): 9.1%
  Post-preparation stability (RSD/%): 6.7%
  Long-term stability (RSD/%): 11.1%
  Freeze-thaw stability (RSD/%): 13.4%
[1]; [4]
  Short-term stability (RSD/%): 7.1%
  Post-preparation stability (RSD/%): 5.1%
  Long-term stability (RSD/%): 2.0%
  Freeze-thaw stability (RSD/%): 6.2%
[1]; [5]
  Short-term stability (RSD/%): 11.8%
  Post-preparation stability (RSD/%): 4.2%
  Long-term stability (RSD/%): 6.4%
  Freeze-thaw stability (RSD/%): 12.3%
[2]; [6]
  AUC(0-inf): 602 ng·h/mL
  Cmax: 214 ng/mL
  Tmax: 0.64 h
[2]; 3 mg/kg, AF extract, low dose (3.0 mg/kg as AA I), analyte dose mg/kg: AA I 3.0, AA II 0.21, AA C 1.42, AA D 1.60, 7-OH AA I 2.33, n = 6, read-out: CLz/F (converted)
  CL/F: 71.5 mL/min/kg
[2]; 3 mg/kg, AF extract, low dose (3.0 mg/kg as AA I), analyte dose mg/kg: AA I 3.0, AA II 0.21, AA C 1.42, AA D 1.60, 7-OH AA I 2.33, n = 6, read-out: Vz/F
  Vd/F: 24.7 L/kg
[2]; 3 mg/kg, AF extract, low dose (3.0 mg/kg as AA I), analyte dose mg/kg: AA I 3.0, AA II 0.21, AA C 1.42, AA D 1.60, 7-OH AA I 2.33, n = 6, read-out: t 1/2z (converted)
  half-life: 3.84 h
[2]; [7]
  AUC(0-inf): 620 ng·h/mL
  Cmax: 216 ng/mL
  Tmax: 0.5 h
[2]; 3 mg/kg, HAF extract, low dose (3.0 mg/kg as AA I), analyte dose mg/kg: AA I 3.0, AA II 0.26, AA C 1.53, AA D 1.51, 7-OH AA I 2.48, n = 6, read-out: CLz/F (converted)
  CL/F: 81.3 mL/min/kg
[2]; 3 mg/kg, HAF extract, low dose (3.0 mg/kg as AA I), analyte dose mg/kg: AA I 3.0, AA II 0.26, AA C 1.53, AA D 1.51, 7-OH AA I 2.48, n = 6, read-out: Vz/F
  Vd/F: 17.5 L/kg
[2]; 3 mg/kg, HAF extract, low dose (3.0 mg/kg as AA I), analyte dose mg/kg: AA I 3.0, AA II 0.26, AA C 1.53, AA D 1.51, 7-OH AA I 2.48, n = 6, read-out: t 1/2z (converted)
  half-life: 2.75 h
[2]; [8]
  AUC(0-inf): 1160 ng·h/mL
  Cmax: 404 ng/mL
  Tmax: 0.72 h
[2]; 8 mg/kg, AF extract, mid dose (8.0 mg/kg as AA I), analyte dose mg/kg: AA I 8.0, AA II 0.56, AA C 3.78, AA D 4.26, 7-OH AA I 6.22, n = 6, read-out: CLz/F (converted)
  CL/F: 92.5 mL/min/kg
[2]; 8 mg/kg, AF extract, mid dose (8.0 mg/kg as AA I), analyte dose mg/kg: AA I 8.0, AA II 0.56, AA C 3.78, AA D 4.26, 7-OH AA I 6.22, n = 6, read-out: Vz/F
  Vd/F: 26.1 L/kg
[2]; 8 mg/kg, AF extract, mid dose (8.0 mg/kg as AA I), analyte dose mg/kg: AA I 8.0, AA II 0.56, AA C 3.78, AA D 4.26, 7-OH AA I 6.22, n = 6, read-out: t 1/2z (converted)
  half-life: 3.25 h
[2]; [9]
  AUC(0-inf): 991 ng·h/mL
  Cmax: 366 ng/mL
  Tmax: 0.67 h
[2]; 8 mg/kg, HAF extract, mid dose (8.0 mg/kg as AA I), analyte dose mg/kg: AA I 8.0, AA II 0.69, AA C 4.09, AA D 4.03, 7-OH AA I 6.62, n = 6, read-out: CLz/F (converted)
  CL/F: 109 mL/min/kg
[2]; 8 mg/kg, HAF extract, mid dose (8.0 mg/kg as AA I), analyte dose mg/kg: AA I 8.0, AA II 0.69, AA C 4.09, AA D 4.03, 7-OH AA I 6.62, n = 6, read-out: Vz/F
  Vd/F: 25.4 L/kg
[2]; 8 mg/kg, HAF extract, mid dose (8.0 mg/kg as AA I), analyte dose mg/kg: AA I 8.0, AA II 0.69, AA C 4.09, AA D 4.03, 7-OH AA I 6.62, n = 6, read-out: t 1/2z (converted)
  half-life: 2.55 h
[2]; [10]
  AUC(0-inf): 1320 ng·h/mL
  Cmax: 566 ng/mL
  Tmax: 0.5 h
[2]; 15 mg/kg, AF extract, high dose (15.0 mg/kg as AA I), analyte dose mg/kg: AA I 15.0, AA II 1.05, AA C 7.09, AA D 8.00, 7-OH AA I 11.66, n = 6, read-out: CLz/F (converted)
  CL/F: 174 mL/min/kg
[2]; 15 mg/kg, AF extract, high dose (15.0 mg/kg as AA I), analyte dose mg/kg: AA I 15.0, AA II 1.05, AA C 7.09, AA D 8.00, 7-OH AA I 11.66, n = 6, read-out: Vz/F
  Vd/F: 52.3 L/kg
[2]; 15 mg/kg, AF extract, high dose (15.0 mg/kg as AA I), analyte dose mg/kg: AA I 15.0, AA II 1.05, AA C 7.09, AA D 8.00, 7-OH AA I 11.66, n = 6, read-out: t 1/2z (converted)
  half-life: 3.45 h
[2]; [11]
  AUC(0-inf): 1130 ng·h/mL
  Cmax: 531 ng/mL
  Tmax: 0.53 h
[2]; 15 mg/kg, HAF extract, high dose (15.0 mg/kg as AA I), analyte dose mg/kg: AA I 15.0, AA II 1.29, AA C 7.66, AA D 7.56, 7-OH AA I 12.41, n = 6, read-out: CLz/F (converted)
  CL/F: 207 mL/min/kg
[2]; 15 mg/kg, HAF extract, high dose (15.0 mg/kg as AA I), analyte dose mg/kg: AA I 15.0, AA II 1.29, AA C 7.66, AA D 7.56, 7-OH AA I 12.41, n = 6, read-out: Vz/F
  Vd/F: 47.4 L/kg
[2]; 15 mg/kg, HAF extract, high dose (15.0 mg/kg as AA I), analyte dose mg/kg: AA I 15.0, AA II 1.29, AA C 7.66, AA D 7.56, 7-OH AA I 12.41, n = 6, read-out: t 1/2z (converted)
  half-life: 2.94 h
